{"source": "patent US11965219B2", "about": "“Process and apparatus for reduction in microbial growth in solutions of sugars extracted from waste materials” (UNIVERSITY OF LEEDS, priority 2018, dated 2024)", "test_system": "microbial growth in solutions of sugar", "assay": "Microbial contamination control procedure: dissolved oxygen and pH monitoring of solutions of sugars after adding a sterilisation agent", "protocol": "The process described is based upon the Fiberight industrial scale process, modified for a 1 litre reaction vessel. The amount of organic substrate used in the process is dependent on the required total solids (TS) content of the process. Typically, TS will be between 5-25%. TS is calculated using the required reaction mass and the solids content of the organic substrate, which is typically between 10-70%. (For a reaction mass of 1 kg, with a required TS of 8% (w/w), using organic substrate with a solids content of 32% (w/w), the amount of organic substrate needed for the process is 250 g). The organic substrate is sterilised in an autoclave at 125° C. for 1 hour immediately prior to use.\nThe reaction vessel is sterilised prior to use by filling with […] and stirring for 1 hour. The ethanol is then drained and the heating jacket set to 50° C. prior to addition of the reaction components (water, organic substrate, and enzyme).\nThe organic substrate is added to a preheated reaction vessel (50° C.) in one portion followed by sterilised water (the mass of water required=total reaction mass−mass of organic substrate) and stirred at between 200-600 RPM, depending on TS (higher TS requires a higher RPM to ensure thorough mixing). […] DO readings are taken throughout the process and are typically between 3-8 mg/L if no contamination is present. […] Typically this stops after T=3 hours and maintains linear readings. If contamination occurs the DO reading can drop to 0 mg/L, which typically happens between T=5-8 hours. […]\nSeveral sterilisation agents have been tested to determine their effectiveness in controlling microbial growth in solutions of sugar. The sterilisation agents were either introduced at T=0 or at the point that microbial growth is observed, which can be measured by the DO sensor. Typically, contamination can be said to occur when the DO reading starts to drop exponentially, eventually reaching 0 mg/L if no sterilisation agent is added. In these tests, software was used to monitor the DO readings and trigger the addition of an antimicrobial. […]", "data": [{"molecule": "[O][Cl+][O-]", "note": "[chlorine dioxide]", "values": [{"measurement": "dissolved oxygen and pH levels / microbial growth", "setting": "0.05 wt % added at T=5 hrs 45 mins, T=50 hrs 30 mins and T=73 hrs 30 mins, FIG. 7", "result": "stabilise dissolved oxygen and pH levels, thereby preventing further microbial growth"}, {"measurement": "dissolved oxygen and pH levels / microbial growth", "setting": "0.35 wt % added at T=8 hrs 45 mins in a single aliquot, FIG. 6", "result": "stabilise dissolved oxygen and pH levels, thereby preventing further microbial growth"}, {"measurement": "pH drop (evidence of lactic acid production)", "setting": "added in response to the drop in dissolved oxygen, FIGS. 6 and 7", "result": "prevented"}]}]}
